Where “and” joins values, the source holds several entries; their conditions need not be identical. Identical values can stand only once. Like-named read-outs stand apart in the source and are kept apart here.
Key:
peripheral blood cells = conditions: for Olive Tail Moment / Tail Length (µm): Mean ± SD
Description: (§1) The experimental animals—Rattus norvegicus (Wistar strain; 8–10 weeks old; 120 ± 20 gm; males only) were acquired from Indian Institute of Integrative Medicine (IIIM-CSIR) (Jammu, India), quarantined, acclimatized and sacrificed as per standard practice conforming to the University Ethical Regulations. After acclimatization, rats were divided into five groups by stratified randomization with five animals per group. […] Distilled water was used to prepare dosing solutions of test agent and injected via intraperitoneal (i.p.) injection. At 24, 48 and 72 h post-dosing, 5 rats per duration were sacrificed and necessary tissues were isolated for different cytogenetic and molecular parameters. For CA assessment, separate experimental lot was used due to colchicine treatment.
Detection of DNA strand break was performed according to protocol of Singh et al. with some modifications. Briefly, blood was collected using Retro-orbital bleeding during euthanasia. 10μL whole blood cells obtained were mixed with 75 µL of 0.5% LMPA and layered onto frosted slides which was pre-coated with NMA. After putting cover slip, slides were kept for 5–10min. After gelling, removed cover slip gently and added a layer of 90 μL of LMPA. After replacing the cover slip, slides were placed on the slide tray (ice packs) till the agarose layer hardened (5–10 min). Following this, removed the cover slip and by gently immersing the slides in lysis buffer embedded cells were lysed. Cells lysis was performed in cold conditions for a minimum of 2 h in lysing solution.
Alkaline conditions (pH > 13) were used to perform the electrophoresis. After lysis, slides were subjected in electrophoretic buffer at 4 °C for 40 min to achieve the DNA denaturation that allow the DNA unwinding and the expression of alkali labile site. Electrophoresis was then carried out at 0.74 V/cm for 40 min (300 mA; 24 volts) at 4 °C by raising or lowering buffer. Thereafter, neutralization buffer (0.4 M Tris, 10 M HCl; pH = 7.5) were employed to wash the slides. Slides were stained by 80 μL of 1× Ethidium Bromide and excess stain was removed by dipping in chilled distilled water. Slides were examined at 40× magnification under fluorescence microscope coupled with a charge coupled device camera (Olympus).

Neutrophils = system: Neutrophils
Description: as §1
(§2) WBCs were isolated by following the protocol of Lone et al.. Blood was collected in 0.1% EDTA from retro-orbital plexus of rat, followed by incubation for 30 min. 500 µL of blood was then added to a centrifuge tube with 1 mL FACS lysing solution. The blood was incubated for 10 min and centrifuged (2000 rpm, 10 min) at 25 °C. After discarding the supernatant, pellet was washed in 1mL FACS lysing solution followed by centrifuging at 2000 rpm for 5 min. Repeated this step twice and then pellet was put in 500 µL of PBS, leaving only WBCs.
(§3) Protocol of Majeed and colleagues was employed for flow cytometric measurements of change in Ψm. […] Leukocytes were identified via forward and side scatter.

Eosinophils = system: Eosinophils
Description: as §1, §2, §3

bone marrow cells = conditions: for Total Aberrations (Mean ± SD): mean percentage; for MI (Mean ± SD): mitotic index mean percentage; for Structural Aberrations Assoc: number of associations; for Structural Aberrations Brk: number of breaks; for Structural Aberrations Del: number of deletions; for Structural Aberrations Dcn: number of dicentrics; for Structural Aberrations Frag: number of fragments; for Structural Aberrations Gp: number of gaps; for Structural Aberrations Ring: number of rings
Description: as §1
Method of Preston et al. was used for preparing the metaphase chromosomes. An aqueous solution of Colchicine (4 mg/kgbw) was injected intraperitoneally 2 h prior to sacrificing the animal. Pre-warm KCL (0.075 M) solution was used to collect the bone marrow cells followed by incubation at 37 °C for 20 min, and then centrifuge at 1000 rpm for 10 min. After fixing the pellet in cold Cornoy’s fixative dropped onto clean pre-chilled glass slide in 30% ethanol and dried in air. 5% buffered Giemsa (pH 7.0) was used for staining. Chromosomal aberrations were analyzed on properly separated metaphases and finally photographed at 100× (Olympus U—PMTV microscope), using oil immersion. The metaphase cells from approximately 1000 cells per concentration per animal both in exposed and control replicates, expressed in percentage were considered for mitotic indices (MI).

Platelets = conditions: 72 h treatment

CNC(=O)CSP(=S)(OC)OC [DM, 0,0- Dimethyl S-(N-methylcarbamoylmethyl) phosphorodithiote]
Olive Tail Moment (peripheral blood cells; 20 mg/kgbw, 24 h): 5.65 ± 0.33 ***^,a | Tail Length (µm) (peripheral blood cells; 20 mg/kgbw, 24 h): 22.44 µm and 22.44 ± 2.07 ***^,a µm | Olive Tail Moment (peripheral blood cells; 20 mg/kgbw, 48 h): 4.01 ± 0.48 ***^,a | Tail Length (µm) (peripheral blood cells; 20 mg/kgbw, 48 h): 19.26 ± 1.00 *^,a µm | Olive Tail Moment (peripheral blood cells; 20 mg/kgbw, 72 h): 2.71 ± 0.31 *^,a | Tail Length (µm) (peripheral blood cells; 20 mg/kgbw, 72 h): 16.16 ± 1.35 *^,a µm | Tail Length (µm) (peripheral blood cells; 40 mg/kgbw, 24 h): 24.37 ± 1.66 ***^,a,b µm | Olive Tail Moment (peripheral blood cells; 40 mg/kgbw, 48 h): 5.35 ± 0.48 ***^,a,*^,b | Tail Length (µm) (peripheral blood cells; 40 mg/kgbw, 48 h): 25.07 ± 1.87 ***^,a,b µm | Olive Tail Moment (peripheral blood cells; 40 mg/kgbw, 72 h): 3.13 ± 0.28 *^,a | Tail Length (µm) (peripheral blood cells; 40 mg/kgbw, 72 h): 21.12 ± 1.45 ***^,a µm | Tail Length (µm) (peripheral blood cells; 60 mg/kgbw, 24 h): 30.09 µm and 30.09 ± 2.86 ***^,a,b µm | Olive Tail Moment (peripheral blood cells; 60 mg/kgbw, 48 h): 6.46 ± 0.64 ***^,a,b,c | Tail Length (µm) (peripheral blood cells; 60 mg/kgbw, 48 h): 27.63 ± 3.12 ***^,a,c,**^,b µm | Olive Tail Moment (peripheral blood cells; 60 mg/kgbw, 72 h): 4.84 ± 0.41 **^,a | Tail Length (µm) (peripheral blood cells; 60 mg/kgbw, 72 h): 20.37 ± 1.59 *^,a,c µm | increase of OTM vis-a-vis negative control (peripheral blood cells; single dose of 10 mg DM/kgbw, 24 h): ~5 fold | MMP loss (membrane potential loss) (Neutrophils; neutrophils, 72 h treatment): greater than 90% | maximum MMP loss (Neutrophils; neutrophils, initial exposure time): greater than 30% | MMP loss in neutrophils (Neutrophils; range over increased DM doses, initial exposure time): 2–40% | MMP loss (Eosinophils; 48 h exposure period (Figure 8)): around 30% | MMP loss (membrane potential loss) (Eosinophils; 72 h treatment): greater than 90% | Total Aberrations (Mean ± SD) (bone marrow cells; 20 mg/kgbw, 24 h): 5.66 ± 1.03 **^,a % | Total Aberrations (Mean ± SD) (bone marrow cells; 20 mg/kgbw, 48 h): 5.33 ± 1.43 **^,a % | Total Aberrations (Mean ± SD) (bone marrow cells; 20 mg/kgbw, 72 h): 2.17 ± 0.83 *^,a % | Total Aberrations (Mean ± SD) (bone marrow cells; 40 mg/kgbw, 24 h): 5.83 ± 1.69 **^,a % | Total Aberrations (Mean ± SD) (bone marrow cells; 40 mg/kgbw, 48 h): 5.16 ± 1.74 **^,a % | Total Aberrations (Mean ± SD) (bone marrow cells; 40 mg/kgbw, 72 h): 2.67 ± 0.75 *^,a % | Total Aberrations (Mean ± SD) (bone marrow cells; 60 mg/kgbw, 24 h): 7.50 ± 1.15% and 7.50 ± 1.15 **^,a,*^,b % | Total Aberrations (Mean ± SD) (bone marrow cells; 60 mg/kgbw, 48 h): 6.83 ± 1.90 **^,a % | Total Aberrations (Mean ± SD) (bone marrow cells; 60 mg/kgbw, 72 h): 3.16 ± 0.71 *^,a % | MI (Mean ± SD) (bone marrow cells; 20 mg/kgbw, 24 h): 2.19 ± 0.21 *^,a % | MI (Mean ± SD) (bone marrow cells; 20 mg/kgbw, 48 h): 2.04 ± 0.15 *^,a % | MI (Mean ± SD) (bone marrow cells; 20 mg/kgbw, 72 h): 2.07 ± 0.10 *^,a % | MI (Mean ± SD) (bone marrow cells; 40 mg/kgbw, 24 h): 2.16 ± 0.16 *^,a % | MI (Mean ± SD) (bone marrow cells; 40 mg/kgbw, 48 h): 1.98 ± 0.08 *^,a % | MI (Mean ± SD) (bone marrow cells; 40 mg/kgbw, 72 h): 2.05 ± 0.14 *^,a % | MI (Mean ± SD) (bone marrow cells; 60 mg/kgbw, 24 h): 1.92 ± 0.61 *^,a % | MI (Mean ± SD) (bone marrow cells; 60 mg/kgbw, 48 h): 1.97 ± 0.12 *^,a % | MI (Mean ± SD) (bone marrow cells; 60 mg/kgbw, 72 h): 1.95 ± 0.04 *^,a % | Structural Aberrations Assoc (bone marrow cells; 20 mg/kgbw, 24 h): 4 | Structural Aberrations Assoc (bone marrow cells; 20 mg/kgbw, 48 h): 5 | Structural Aberrations Assoc (bone marrow cells; 20 mg/kgbw, 72 h): 0 | Structural Aberrations Assoc (bone marrow cells; 40 mg/kgbw, 24 h): 6 | Structural Aberrations Assoc (bone marrow cells; 40 mg/kgbw, 48 h): 6 | Structural Aberrations Assoc (bone marrow cells; 40 mg/kgbw, 72 h): 1 | Structural Aberrations Assoc (bone marrow cells; 60 mg/kgbw, 24 h): 4 | Structural Aberrations Assoc (bone marrow cells; 60 mg/kgbw, 48 h): 7 | Structural Aberrations Assoc (bone marrow cells; 60 mg/kgbw, 72 h): 1 | Structural Aberrations Brk (bone marrow cells; 20 mg/kgbw, 24 h): 2 | Structural Aberrations Brk (bone marrow cells; 20 mg/kgbw, 48 h): 9 | Structural Aberrations Brk (bone marrow cells; 20 mg/kgbw, 72 h): 2 | Structural Aberrations Brk (bone marrow cells; 40 mg/kgbw, 24 h): 4 | Structural Aberrations Brk (bone marrow cells; 40 mg/kgbw, 48 h): 3 | Structural Aberrations Brk (bone marrow cells; 40 mg/kgbw, 72 h): 5 | Structural Aberrations Brk (bone marrow cells; 60 mg/kgbw, 24 h): 6 | Structural Aberrations Brk (bone marrow cells; 60 mg/kgbw, 48 h): 7 | Structural Aberrations Brk (bone marrow cells; 60 mg/kgbw, 72 h): 8 | Structural Aberrations Del (bone marrow cells; 20 mg/kgbw, 24 h): 4 | Structural Aberrations Del (bone marrow cells; 20 mg/kgbw, 48 h): 5 | Structural Aberrations Del (bone marrow cells; 20 mg/kgbw, 72 h): 4 | Structural Aberrations Del (bone marrow cells; 40 mg/kgbw, 24 h): 4 | Structural Aberrations Del (bone marrow cells; 40 mg/kgbw, 48 h): 4 | Structural Aberrations Del (bone marrow cells; 40 mg/kgbw, 72 h): 2 | Structural Aberrations Del (bone marrow cells; 60 mg/kgbw, 24 h): 6 | Structural Aberrations Del (bone marrow cells; 60 mg/kgbw, 48 h): 5 | Structural Aberrations Del (bone marrow cells; 60 mg/kgbw, 72 h): 3 | Structural Aberrations Dcn (bone marrow cells; 20 mg/kgbw, 24 h): 8 | Structural Aberrations Dcn (bone marrow cells; 20 mg/kgbw, 48 h): 3 | Structural Aberrations Dcn (bone marrow cells; 20 mg/kgbw, 72 h): 2 | Structural Aberrations Dcn (bone marrow cells; 40 mg/kgbw, 24 h): 12 | Structural Aberrations Dcn (bone marrow cells; 40 mg/kgbw, 48 h): 8 | Structural Aberrations Dcn (bone marrow cells; 40 mg/kgbw, 72 h): 2 | Structural Aberrations Dcn (bone marrow cells; 60 mg/kgbw, 24 h): 10 | Structural Aberrations Dcn (bone marrow cells; 60 mg/kgbw, 48 h): 7 | Structural Aberrations Dcn (bone marrow cells; 60 mg/kgbw, 72 h): 2 | Structural Aberrations Frag (bone marrow cells; 20 mg/kgbw, 24 h): 6 | Structural Aberrations Frag (bone marrow cells; 20 mg/kgbw, 48 h): 12 | Structural Aberrations Frag (bone marrow cells; 20 mg/kgbw, 72 h): 4 | Structural Aberrations Frag (bone marrow cells; 40 mg/kgbw, 24 h): 3 | Structural Aberrations Frag (bone marrow cells; 40 mg/kgbw, 48 h): 16 | Structural Aberrations Frag (bone marrow cells; 40 mg/kgbw, 72 h): 5 | Structural Aberrations Frag (bone marrow cells; 60 mg/kgbw, 24 h): 8 | Structural Aberrations Frag (bone marrow cells; 60 mg/kgbw, 48 h): 14 | Structural Aberrations Frag (bone marrow cells; 60 mg/kgbw, 72 h): 3 | Structural Aberrations Gp (bone marrow cells; 20 mg/kgbw, 24 h): 8 | Structural Aberrations Gp (bone marrow cells; 20 mg/kgbw, 48 h): 6 | Structural Aberrations Gp (bone marrow cells; 20 mg/kgbw, 72 h): 5 | Structural Aberrations Gp (bone marrow cells; 40 mg/kgbw, 24 h): 8 | Structural Aberrations Gp (bone marrow cells; 40 mg/kgbw, 48 h): 7 | Structural Aberrations Gp (bone marrow cells; 40 mg/kgbw, 72 h): 7 | Structural Aberrations Gp (bone marrow cells; 60 mg/kgbw, 24 h): 7 | Structural Aberrations Gp (bone marrow cells; 60 mg/kgbw, 48 h): 8 | Structural Aberrations Gp (bone marrow cells; 60 mg/kgbw, 72 h): 6 | Structural Aberrations Ring (bone marrow cells; 20 mg/kgbw, 24 h): 2 | Structural Aberrations Ring (bone marrow cells; 20 mg/kgbw, 48 h): 6 | Structural Aberrations Ring (bone marrow cells; 20 mg/kgbw, 72 h): 1 | Structural Aberrations Ring (bone marrow cells; 40 mg/kgbw, 24 h): 6 | Structural Aberrations Ring (bone marrow cells; 40 mg/kgbw, 48 h): 5 | Structural Aberrations Ring (bone marrow cells; 40 mg/kgbw, 72 h): 1 | Structural Aberrations Ring (bone marrow cells; 60 mg/kgbw, 24 h): 4 | Structural Aberrations Ring (bone marrow cells; 60 mg/kgbw, 48 h): 9 | Structural Aberrations Ring (bone marrow cells; 60 mg/kgbw, 72 h): 2 | MMP loss (membrane potential loss) (Platelets): greater than 90%

— PMC7712428, “Dimethoate Induces DNA Damage and Mitochondrial Dysfunction Triggering Apoptosis in Rat Bone-Marrow and Peripheral Blood Cells” (Toxics, 2020)
